Data set [1] has as its system NO production in LPS-activated RAW 264.7 macrophages. The experiment in a line: Inhibition of nitric oxide (NO) production in LPS-activated RAW 264.7 macrophages (Griess reagent). The format is cell-based, Murine. As to conditions: for amount of NO produced: compound at 25 µM, LPS 1 μg/mL, 24 h, untreated and stimulated control 6.08 µM. The procedure: Murine macrophage RAW 264.7 cell line obtained from the American Type Culture Collection (Rockville, MD, United States) was maintained in DMEM supplemented with 10% fetal calf serum (FCS) and 1% penicillin/streptomycin/fungizone (PSF) under standard cell culture conditions at 37°C and 5% CO2 in a humidified environment. The RAW 264.7 macrophage cells were seeded in 96 well-microtitre plates (2 × 10^5 cells/mL). They were activated by incubation in a medium containing 1 μg/mL LPS alone (control) or lipopolysaccharide, and compounds at concentration of 3.12 µM, 6.25 µM, 12.5 µM and 25 µM dissolved in DMSO. […] After 24h, the amount of nitric oxide released from macrophages was determined using the Griess reagent as previously described ([Dzoyem and Eloff, 2015]).
Background: Nitrite, measured by Griess reagent, commonly stands in for NO production.

Data set [2] deals with T1, 15-lipoxygenase from Glycine max (Glycine max, UniProt P08170).
T1 construct: purchased Sigma (Germany)
T1 sequence (P08170 1-839): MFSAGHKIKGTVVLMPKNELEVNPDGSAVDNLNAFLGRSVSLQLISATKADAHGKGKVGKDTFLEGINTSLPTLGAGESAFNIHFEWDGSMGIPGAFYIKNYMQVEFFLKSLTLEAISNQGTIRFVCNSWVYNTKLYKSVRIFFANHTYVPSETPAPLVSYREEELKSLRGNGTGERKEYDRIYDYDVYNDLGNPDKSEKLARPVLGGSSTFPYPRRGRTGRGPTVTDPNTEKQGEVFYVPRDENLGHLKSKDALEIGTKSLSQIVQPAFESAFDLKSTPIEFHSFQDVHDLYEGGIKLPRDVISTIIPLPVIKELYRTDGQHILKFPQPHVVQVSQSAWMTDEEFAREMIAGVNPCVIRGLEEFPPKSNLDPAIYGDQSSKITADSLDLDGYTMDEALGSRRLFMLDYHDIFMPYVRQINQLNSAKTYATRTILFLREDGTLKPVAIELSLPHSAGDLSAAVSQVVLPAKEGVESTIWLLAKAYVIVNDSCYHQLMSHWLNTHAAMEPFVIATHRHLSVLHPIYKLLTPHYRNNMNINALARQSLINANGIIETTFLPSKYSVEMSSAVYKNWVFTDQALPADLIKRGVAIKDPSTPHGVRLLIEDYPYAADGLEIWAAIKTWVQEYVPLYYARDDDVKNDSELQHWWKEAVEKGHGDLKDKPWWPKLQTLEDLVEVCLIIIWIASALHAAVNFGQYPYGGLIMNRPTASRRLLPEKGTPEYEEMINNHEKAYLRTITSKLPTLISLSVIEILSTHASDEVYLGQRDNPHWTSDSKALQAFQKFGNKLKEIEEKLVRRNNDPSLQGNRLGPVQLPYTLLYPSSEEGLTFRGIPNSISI
The experiment in a line: Soybean 15-LOX inhibition assay (ferrous oxidation-xylenol orange). It is filed as biochemical. As to conditions: linoleic acid 140 µM, pH 7.4, 25°C. The procedure: The assay was performed according to a previously described procedure ([Pinto et al., 2007]) with slight modifications. The assay is based on measuring the formation of the complex Fe3^+/xylenol orange in a spectrophotometer at 560 nm. 15-LOX from G. max was incubated with compounds or standard inhibitors at 25°C for 5 min. The concentration range of the samples were from 250 μM to 1.95 µM. Then linoleic acid (final concentration, 140 µM) in Tris-HCl buffer (50 mM, pH 7.4) was added and the mixture was incubated at 25°C for 20 min in the dark. The assay was terminated by the addition of 100 µL of FOX reagent consisting of sulfuric acid (30 mM), xylenol orange (100 µM), iron (II) sulfate (100 µM) in methanol/water (9:1). For the control, only LOX solution and buffer were pipetted into the wells. Blanks (background) contained the enzyme LOX during incubation, but the substrate (linoleic acid) was added after the FOX reagent. […] The LOX inhibitory activity was evaluated by calculating the percentage of the inhibition of hydroperoxide production from the changes in absorbance values at 560 nm after 30 min at 25°C. % inhibition = [(Acontrol – Ablank) – (Asample – Ablank)/(Acontrol – Ablank)] x100. Where Acontrol is the absorbance of control well, Ablank is the absorbance of blank well and Asample is the absorbance of sample well.

SMILES strings stand for the structures.

The record followed here is PMC11180795 (Frontiers in Pharmacology, 2024).

The IC50 is the concentration needed to halve the response being measured. A lower IC50 goes with greater potency. For orientation: melting point means the temperature of the solid-liquid transition.

For the molecule `CC(C)=CCc1c2c(c3oc4c(O)cccc4c(=O)c3c1O)C=CC(C)(C)O2` [Compound 1, Ananixanthone], the “inhibitory effect on NO production at the highest concentration (in words)” value in data set [1] (25 µM, LPS-stimulated RAW 264.7) is “remarkable inhibitory effect”. Also, the IC50 in data set [2] came out at 63.9 µM.
Turning to `CC(C)=CCC/C(C)=C/C[C@]12C[C@@H](CC=C(C)C)C(C)(C)[C@](C/C=C(\C)CCC=C(C)C)(C(=O)C(C(=O)c3ccc(O)c(O)c3)=C1O)C2=O` [Compound 5, Guttiferone O], the melting point came out at 103 °C. Moreover, the “amount of NO produced” value in data set [1] was determined as 0.3 µM. In data set [2], this molecule gave an IC50 of 45 µM.
On the same counts, the results for `CC(C)=CCC/C(C)=C/C[C@]12C[C@@H](CC=C(C)C)C(C)(C)[C@](CC=C(C)C)(C(=O)C(C(=O)c3ccc(O)c(O)c3)=C1O)C2=O` [Compound 6, Guttiferone M] are 82 °C, 0.54 µM and 53 µM.
